For experiment [1], the system named is TRPV4 (wtTRPV4, TRPV4R269H, TRPV4R316C). The experiment can be described thus: Calcium imaging, internal Fura-2 fluorescence ratio (340/380), in transiently transfected HEK293 cells. The class given is cell-based, human. To be noted: for effect on [Ca2+]i (internal fluorescence ratio): WT-TRPV4, R269H and R316C transfected HEK293 cells. Here is the method: The TRPV4 channel responds to a variety of stimuli (Nilius et al. Physiol Rev 87, 165-217 (2007); herein incorporated by reference in its entirety). To test the potential effects of the mutations on calcium channel activity, the calcium channel activity of transiently transfected HEK293 cells was analyzed using internal Fura-2 fluorescence ratio (340/380) as an indicator of the intracellular Ca2+ levels, which depend on Ca2+ influx. Calcium levels of the transfected cells were examined in response to various stimuli, including TRPV4-specific agonist 4α-phorbol 12, 13-didecanoate (4αPDD) (SEE FIG. 4), osmotic cell swelling (SEE FIG. 5), moderate heat (37° C.) (SEE FIG. 9) and endogenous agonist arachidonic acid (SEE FIG. 10). A consistent pattern of channel response to different stimuli was observed. […] The increased calcium channel activity was inhibited by TRPV antagonist ruthenium red.
Human embryonic kidney cells (HEK293) were grown on collagen-coated glass coverslips in Dulbecco's modified Eagle's medium containing 10% (v/v) human serum, 2 mM L-glutamine, 2 U/ml penicillin, and 2 […] at 37° C. in a humidity-controlled incubator with 5% CO2. The cells were transiently transfected with expression vectors, wild-type TRPV4, TRPV4^R316C or TRPV4^R269H using Lipofectamine 2000 (Invitrogen).
Intracellular free calcium concentration was measured using digital video microfluorimetry. Twenty-four hours after transfection, cells were rinsed briefly with HEPES buffer (120 mM NaCl, 5.4 mM KCl, 1.6 mM MgCl2, 1.8 mM CaCl2, 11 mM glucose, and 25 mM HEPES, pH 7.2), and loaded with 4 μM fura-2 AM (Molecular Probes) in HEPES buffer for 30 min at room temperature. […] The coverslips were then mounted on the stage of a Nikon Diaphot inverted epifluorescence microscope equipped for digital fluorescence microscopy. After excitation at 340 nm (Ca^2+-bound) and 380 nm (Ca^2+-free) fluorescence was digitally monitored at 520 nm. […] Values for Rmin and Rmax were determined by applying Ca^2+-free solution and high Ca^2+ containing solution in the presence of 5 μM ionomycin, respectively. […]

Experiment [2] deals with TRPV4 (wtTRPV4, TRPV4-R269H). The experiment can be described thus: Whole cell voltage clamp recordings of TRPV4 currents from transfected HEK293 cells. The class given is cell-based, human. The following applies: 20 μM ruthenium red in the bath; voltage ramp -100 to 100 mV; cells expressing wtTRPV4 or TRPV4-R269H. The procedure: The effect of the CMT2C-linked mutation (TRPV4R269H) on the electrophysiological properties of TRPV4 was examined. Whole-cell patch-clamp recordings were obtained from transiently transfected HEK293 cells.
Whole cell voltage clamp recordings were performed to HEK293 cells transiently transfected with wild-type or R269H TRPV4 cDNA. […] Similar GFP-fluorescent cells were selected for experiments. […] The series resistance was 4 to 14 MSΩ and was compensated between 65 and 75%. The extracellular solution consisted of (in mM): NaCl 100, KCl 6, MgCl2 2, CaCl2 1.5, Glucose 10, HEPES 10, pH 7.38 adjusted with NaOH, ˜315 mOsm adjusted with sucrose. Whole cell currents were recorded using an Axopatch 200B amplifier (Molecular Devices). Cells were held at −30 mV and currents were elicited by slow voltage ramps (from −100 mV to +100 mV, 0.6 sec duration), filtered at 5 KHz and sampled at 10 KHz. Drugs were bath-applied at a rate of ˜4 ml/min. The current density was determined by normalizing the current to the cell capacitance measured in voltage clamp using a −5 mV square pulse from a holding potential of −30 mV. Ruthenium red was prepared in a 20 mM stock solution (in water) and stored at 2-4° C. Working solutions were prepared freshly daily and were bath applied. After drug application the dish was discarded even if complete wash-out of the drug was obtained.

Regarding `CCCCCCCCCC(=O)O[C@@H]1[C@@H](C)[C@@]2(O)[C@@H](C=C(CO)C[C@@]3(O)C(=O)C(C)=C[C@@H]23)[C@@H]2C(C)(C)[C@]12OC(=O)CCCCCCCCC` [4αPDD, 4α-phorbol 12, 13-didecanoate], the “effect on [Ca2+]i (internal fluorescence ratio)” value in experiment [1] (4αPDD 2 μM) is “induced an increase in [Ca2+]i”.

As for `CCCCC/C=C\C/C=C\C/C=C\C/C=C\CCCC(=O)O` [AA, arachidonic acid], in experiment [1] (arachidonic acid 10 μM), the “effect on [Ca2+]i (internal fluorescence ratio)” value is “induced an increase in [Ca^2+]i”.

On to `N.N.N.N.N.N.N.N.N.N.N.N.N.N.[Cl-].[Cl-].[Cl-].[Cl-].[Cl-].[Cl-].[O-2].[O-2].[Ru+3].[Ru+3].[Ru+4]` [ruthenium red], for which the “effect on basal whole-cell currents” value in experiment [2] is “dramatically reduced the currents”. For the same compound, the “effect on the increased calcium channel activity” value in experiment [1] (ruthenium red 20 μM used to block the stimuli, transfected HEK293 cells) is “inhibited”.

The values above are taken from US9624544B2, “Allelic disorders caused by mutations in TRPV4” (Northwestern University, priority 2009, dated 2017).
